“And” between values parts separate entries of the source, which are not always exact repeats. Identical values can stand only once.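 Briefly, cells in 96-well plates were exposed to five compound concentrations for 48 h, and endpoints were estimated by linear interpolation. Abbreviation: GI50, concentration required for 50% inhibition of growth. The concentration for full growth arrest is given as TGI.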
System: MDA-MB-468 breast
Assay: growth of human tumour cells (NCI), 48 h

SMILES | GI50 | TGI [nM]
CCCN1CCCC(c2ccc(Nc3nc(Nc4cc(F)ccc4C(N)=O)c4cc[nH]c4n3)c(OC)c2)C1 (stereo not drawn) | 3250 nM | 6730
COc1cc(F)c(F)c(F)c1C(=O)c1cnc(NC2CCN(S(C)(=O)=O)CC2)nc1N | 2300 nM | 7270
Nc1nc(N)c2nc(CNc3ccc(C(=O)NC(CCC(=O)O)C(=O)O)cc3)cnc2n1 (stereo not drawn) | 35.7 nM and < 10 nM | > 100000
COc1ncc(-c2ccc3nc(N)n(-c4ccccc4C(F)(F)F)c(=O)c3c2)cc1S(=O)(=O)Nc1ccc(F)cc1F | 853 nM | 2920
FC(F)(F)c1ccc(-c2cnc(-c3nn[nH]n3)nc2NC2CCCCCC2)cc1 | > 10000 nM | > 10000
CN1CC[C@H](N(C)C(=O)N2CC(c3cc(F)ccc3F)=C[C@@]2(CO)c2ccccc2)[C@H](F)C1 | 5.14 nM | –
Nc1nc(-c2ccccn2)c(-c2ccc3ncccc3n2)s1 | > 25000 nM | > 25000
Nc1ncnc2c1ncn2C1SC(CO)C(O)C1O (stereo not drawn) | 19400 nM | 58000
C=C(C)[C@@H]1CC[C@]2(C(=O)OC)CC[C@]3(C)[C@H](CC[C@@H]4[C@@]5(C)CC/C(=N\OCCC(=NCCC#N)NOCCC#N)C(C)(C)[C@@H]5CC[C@]43C)[C@@H]12 | 2020 nM | > 50000
COc1cnc2c(c1)C(=O)c1c-2n(CCCN2CCNCC2)c(=O)c2cc(F)ccc12 | 205 nM | 784
CCc1ccc2cc3c(ccc4ccccc43)c3c2c1CC3 | 481 nM | > 100000
N=C(N)c1ccc(-c2ccc(-c3cccs3)s2)cc1F | 46.4 nM | 256
